Measurements taken from patent US20140051679A1, “KINASE INHIBITORS AND METHOD OF TREATING CANCER WITH SAME” (UNIVERISTY HEALTH NETWORKS, priority 2011, published 2014).

Tests used:
[1] = test system: MDA-MB-468 breast cancer cells; assay: Cell growth inhibition, Sulforhodamine B assay, MDA-MB-468; format: cell-based; settings: Homo sapiens, 120 h, 5 days culture, SRB assay, read-out: Cell Line GI50 Range MDA-MB-468
[2] = test system: OVCAR-3 ovarian cancer cells; assay: Cell growth inhibition, Sulforhodamine B assay, OVCAR-3; format: cell-based; settings: Homo sapiens, 120 h, 5 days culture, SRB assay, read-out: Cell Line GI50 Range OVCAR-3
[3] = target: T1, Aurora B (Homo sapiens, UniProt Q96GD4); assay: Aurora B inhibition assay (Z-Lyte); format: biochemical; settings: 28 nM Aurora B, 128 μM ATP; read-out: IC50 Ranges Aurora B
T1 construct: purchased Invitrogen PV3970
Protocol: Aurora B inhibition was determined using the Z-Lyte assay kit from Invitrogen. The assay was performed using the recommended manufacturer's instructions with 128 μM ATP and 28 nM Aurora B (Invitrogen cat #PV3970). The % inhibition values were determined according to the manufacturer's directions and IC50 values were obtained using a non-linear 4 point logistic curve fit (XLfit4, IDBS)

[4] = test system: MDA-MB-231 breast cancer cells; assay: Cell growth inhibition, Sulforhodamine B assay, MDA-MB-231; format: cell-based; settings: Homo sapiens, 120 h, 5 days culture, SRB assay, read-out: Cell Line GI50 Range MDA-MB-231
[5] = target: T2, human TTK (Homo sapiens, UniProt P33981); assay: TTK inhibition assay (indirect ELISA); format: biochemical; settings: GST-TTK 0.68 nM, 16 μM ATP; read-out: IC50 Ranges TTK
T2 construct: amino terminal GST fusion of full length human TTK; purchased Invitrogen
T2 sequence (P33981 1-857): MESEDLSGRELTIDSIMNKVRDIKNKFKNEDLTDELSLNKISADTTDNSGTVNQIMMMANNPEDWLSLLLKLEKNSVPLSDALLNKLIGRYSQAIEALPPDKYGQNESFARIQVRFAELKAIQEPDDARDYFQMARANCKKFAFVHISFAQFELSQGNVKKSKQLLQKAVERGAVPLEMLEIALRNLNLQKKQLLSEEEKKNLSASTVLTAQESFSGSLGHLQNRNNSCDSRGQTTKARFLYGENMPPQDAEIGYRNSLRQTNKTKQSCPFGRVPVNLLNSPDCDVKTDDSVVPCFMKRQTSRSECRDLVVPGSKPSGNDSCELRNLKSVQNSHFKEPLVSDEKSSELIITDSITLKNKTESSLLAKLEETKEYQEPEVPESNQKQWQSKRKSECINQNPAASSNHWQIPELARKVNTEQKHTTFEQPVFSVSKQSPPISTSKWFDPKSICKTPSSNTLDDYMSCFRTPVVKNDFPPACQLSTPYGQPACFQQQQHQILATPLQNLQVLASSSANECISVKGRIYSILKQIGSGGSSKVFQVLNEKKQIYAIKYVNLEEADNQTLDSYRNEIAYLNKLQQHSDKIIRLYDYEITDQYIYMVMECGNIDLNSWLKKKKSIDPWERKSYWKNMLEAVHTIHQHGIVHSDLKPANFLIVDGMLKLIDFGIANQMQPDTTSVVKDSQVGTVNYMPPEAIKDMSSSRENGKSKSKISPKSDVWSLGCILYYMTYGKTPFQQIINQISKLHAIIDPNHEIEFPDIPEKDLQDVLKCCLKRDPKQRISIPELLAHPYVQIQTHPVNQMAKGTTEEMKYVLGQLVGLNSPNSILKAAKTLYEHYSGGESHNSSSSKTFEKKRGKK

[6] = test system: PA-1 ovarian cancer cells; assay: Cell growth inhibition, Sulforhodamine B assay, PA-1; format: cell-based; settings: 120 h, 5 days culture, SRB assay, read-out: Cell Line GI50 Range PA-1
[7] = target: T3, human PLK4 (Homo sapiens, UniProt O00444); assay: PLK4 inhibition assay (indirect ELISA); format: biochemical; settings: GST-PLK4 4 nM, 15 μM ATP; read-out: IC50 Ranges PLK4
T3 construct: amino terminal GST fusion of residues 1-391 of human PLK4; made in house; host or cells: E. coli
T3 sequence (O00444 1-391): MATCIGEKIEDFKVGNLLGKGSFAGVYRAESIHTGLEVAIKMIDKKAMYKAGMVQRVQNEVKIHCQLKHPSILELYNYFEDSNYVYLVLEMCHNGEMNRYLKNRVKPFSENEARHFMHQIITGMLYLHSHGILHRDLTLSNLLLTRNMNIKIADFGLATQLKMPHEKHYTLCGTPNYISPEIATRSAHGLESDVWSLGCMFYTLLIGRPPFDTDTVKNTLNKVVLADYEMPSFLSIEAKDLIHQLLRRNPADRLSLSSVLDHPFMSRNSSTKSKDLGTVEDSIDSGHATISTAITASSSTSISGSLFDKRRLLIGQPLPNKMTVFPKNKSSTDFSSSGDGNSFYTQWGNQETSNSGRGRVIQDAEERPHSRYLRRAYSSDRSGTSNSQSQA
Method in brief: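 Dephosphorylated GST-tagged human PLK4 (residues 1-391, E. coli), 4 nM, preincubated 15 min with compound, then reacted 30 min with 15 μM ATP on MBP-coated plates (50 mM HEPES pH 7.5, 10 mM MgCl2, 0.01% Brij 35). Phospho-MBP detected by antibody ELISA at 450 nm. Tested at 10 μM or 10-point titrations; IC50 from 4-parameter logistic fit.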

[8] = test system: HCT116 colon cancer cells; assay: Cell growth inhibition, Sulforhodamine B assay, HCT116; format: cell-based; settings: Homo sapiens, HCT-116, 120 h, 5 days culture, SRB assay, read-out: Cell Line GI50 Range HCT116
[9] = test system: HT29 colon cancer cells; assay: Cell growth inhibition, Sulforhodamine B assay, HT29; format: cell-based; settings: Homo sapiens, HT-29, 120 h, 5 days culture, SRB assay, read-out: Cell Line GI50 Range HT29

T1 sequence (Q96GD4 whole entry): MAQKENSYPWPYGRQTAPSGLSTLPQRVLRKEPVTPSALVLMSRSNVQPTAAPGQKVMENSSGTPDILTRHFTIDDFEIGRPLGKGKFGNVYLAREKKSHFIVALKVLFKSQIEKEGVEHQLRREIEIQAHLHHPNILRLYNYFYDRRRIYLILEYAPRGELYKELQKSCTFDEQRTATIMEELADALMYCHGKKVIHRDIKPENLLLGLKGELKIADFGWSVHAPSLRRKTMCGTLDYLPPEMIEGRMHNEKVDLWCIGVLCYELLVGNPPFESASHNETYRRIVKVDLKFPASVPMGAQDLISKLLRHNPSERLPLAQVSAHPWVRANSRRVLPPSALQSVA

| Compound | GI50 [1] | GI50 [2] | IC50 [3] | GI50 [4] | IC50 [5] | GI50 [6] | IC50 [7] | GI50 [8] | GI50 [9] |
| --- | --- | --- | --- | --- | --- | --- | --- | --- | --- |
| CN1CCN(C(=O)c2cccc(-c3n[nH]c4ccc(NC(=O)C(c5ccsc5)N5CCCC5)cc34)c2)CC1 (stereo not drawn) [Example A96, N-(3-(3-(4-Methylpiperazine-1-carbonyl)phenyl)-1H-indazol-5-yl)-2-(pyrrolidin-1-yl)-2-(thiophen-3-yl)acetamide] | 5 to 20 µM | 5 to 20 µM | 5 to 50 µM | 5 to 20 µM | ≤ 5 µM | 5 to 20 µM | ≤ 5 µM | 5 to 20 µM | 5 to 20 µM |
| CCC(NC(=O)c1ccc2[nH]nc(-c3ccc(OC4CCN(CCOC)CC4)cc3)c2c1)c1ccccc1 (stereo not drawn) [Example A153, 3-(4-((1-(2-methoxyethyl)piperidin-4-yl)oxy)phenyl)-N-(1-phenylpropyl)-1H-indazole-5-carboxamide] | ≤ 5 µM | ≤ 5 µM | ≤ 5 µM | ≤ 5 µM | ≤ 5 µM | ≤ 5 µM | ≤ 5 µM | ≤ 5 µM | ≤ 5 µM |
| CCc1cccc(CC)c1NC(=O)Nc1ccc2[nH]nc(-c3ccc(C4CN(C)CCO4)cc3)c2c1 (stereo not drawn) [Example A124, 1-(2,6-diethylphenyl)-3-(3-(4-(4-methylmorpholin-2-yl)phenyl)-1H-indazol-5-yl)urea] | ≤ 5 µM | 20 to 50 µM | ≤ 5 µM | ≤ 5 µM | ≤ 5 µM | ≤ 5 µM | ≤ 5 µM | ≤ 5 µM | ≤ 5 µM |
| CN1CCC(Oc2ccc(-c3n[nH]c4ccc(C(=O)NCc5ccccc5N5CCOCC5)cc34)cc2)CC1 [Example A108, 3-(4-(1-Methylpiperidin-4-yloxy)phenyl)-N-(2-morpholinobenzyl)-1H-indazole-5-carboxamide] | ≤ 5 µM | ≤ 5 µM | ≤ 5 µM | ≤ 5 µM | ≤ 5 µM | ≤ 5 µM | ≤ 5 µM | ≤ 5 µM | ≤ 5 µM |
| Cc1ccccc1CC(=O)Nc1ccc2[nH]nc(-c3ccc(OC4CCN(C)CC4)cc3)c2c1 [Example A92, N-(3-(4-(1-Methylpiperidin-4-yloxy)phenyl)-1H-indazol-5-yl)-2-o-tolylacetamide] | ≤ 5 µM | ≤ 5 µM | ≤ 5 µM | ≤ 5 µM | ≤ 5 µM | ≤ 5 µM | ≤ 5 µM | ≤ 5 µM | ≤ 5 µM |

The next lines start with the values.

| GI50 [1] | GI50 [2] | IC50 [3] | GI50 [4] | IC50 [5] | GI50 [6] | IC50 [7] | GI50 [8] | GI50 [9] | Compound |
| --- | --- | --- | --- | --- | --- | --- | --- | --- | --- |
| ≤ 5 µM | ≤ 5 µM | ≤ 5 µM | ≤ 5 µM | ≤ 5 µM | ≤ 5 µM | ≤ 5 µM | ≤ 5 µM | ≤ 5 µM | O=CN1CCC(Oc2ccc(-c3n[nH]c4ccc(C(=O)NC(c5ccccc5)C5CC5)cc34)cc2)CC1 (stereo not drawn) [Example A126, N-(cyclopropyl(phenyl)methyl)-3-(4-((1-formylpiperidin-4-yl)oxy)phenyl)-1H-indazole-5-carboxamide] |
| ≤ 5 µM | 5 to 20 µM | ≤ 5 µM | ≤ 5 µM | ≤ 5 µM | ≤ 5 µM | ≤ 5 µM | ≤ 5 µM | ≤ 5 µM | CN1CCN(C)c2ccc(-c3n[nH]c4ccc(NC(=O)C(c5ccsc5)N5CCCC5)cc34)cc2C1 (stereo not drawn) [Example A93, N-(3-(1,4-dimethyl-2,3,4,5-tetrahydro-1H-benzo[e][1,4]diazepin-7-yl)-1H-indazol-5-yl)-2-(pyrrolidin-1-yl)-2-(thiophen-3-yl)acetamide] |
| ≤ 5 µM | ≤ 5 µM | ≤ 5 µM | ≤ 5 µM | ≤ 5 µM | ≤ 5 µM | ≤ 5 µM | ≤ 5 µM | ≤ 5 µM | CN1CCC(Oc2ccc(-c3n[nH]c4ccc(NC(=O)C5CCCc6ccccc65)cc34)cc2)CC1 (stereo not drawn) [Example A18, N-(3-(4-((1-methylpiperidin-4-yl)oxy)phenyl)-1H-indazol-5-yl)-1,2,3,4-tetrahydronaphthalene-1-carboxamide] |
| ≤ 5 µM | ≤ 5 µM | ≤ 5 µM | ≤ 5 µM | ≤ 5 µM | ≤ 5 µM | ≤ 5 µM | ≤ 5 µM | ≤ 5 µM | CN1CCC(Oc2ccc(-c3n[nH]c4ccc(NC(=O)C(c5ccsc5)N5CCCC5)cc34)cc2N(C)C)CC1 (stereo not drawn) [Example A113, N-(3-(3-(dimethylamino)-4-((1-methylpiperidin-4-yl)oxy)phenyl)-1H-indazol-5-yl)-2-(pyrrolidin-1-yl)-2-(thiophen-3-yl)acetamide] |
| ≤ 5 µM | ≤ 5 µM | ≤ 5 µM | ≤ 5 µM | ≤ 5 µM | ≤ 5 µM | ≤ 5 µM | ≤ 5 µM | ≤ 5 µM | CN1CCC(Oc2ccc(-c3n[nH]c4ccc(C(=O)NC(c5ccccc5)C5CCCC5)cc34)cc2)CC1 (stereo not drawn) [Example A159, N-(cyclopentyl(phenyl)methyl)-3-(4-((1-methylpiperidin-4-yl)oxy)phenyl)-1H-indazole-5-carboxamide] |
| ≤ 5 µM | ≤ 5 µM | ≤ 5 µM | ≤ 5 µM | ≤ 5 µM | ≤ 5 µM | ≤ 5 µM | ≤ 5 µM | ≤ 5 µM | CN(C)C(=O)CN1CCC(Oc2ccc(-c3n[nH]c4ccc(C(=O)NC(c5ccccc5)C5CC5)cc34)cc2)CC1 (stereo not drawn) [Example A158, N-(cyclopropyl(phenyl)methyl)-3-(4-((1-(2-(dimethylamino)-2-oxoethyl)piperidin-4-yl)oxy)phenyl)-1H-indazole-5-carboxamide] |
| ≤ 5 µM | ≤ 5 µM | ≤ 5 µM | ≤ 5 µM | ≤ 5 µM | ≤ 5 µM | ≤ 5 µM | ≤ 5 µM | ≤ 5 µM | CN1CCC(Oc2ccc(-c3n[nH]c4ccc(NC(=O)C(c5ccccc5)C5CCCC5)cc34)cc2)CC1 (stereo not drawn) [Example A148, 2-cyclopentyl-N-(3-(4-((1-methylpiperidin-4-yl)oxy)phenyl)-1H-indazol-5-yl)-2-phenylacetamide] |
| ≤ 5 µM | ≤ 5 µM | ≤ 5 µM | ≤ 5 µM | ≤ 5 µM | ≤ 5 µM | ≤ 5 µM | ≤ 5 µM | ≤ 5 µM | CN1CCC(Oc2ccc(-c3n[nH]c4ccc(C(=O)NCc5ccccc5CN5CCOCC5)cc34)cc2)CC1 [Example A109, 3-(4-(1-Methylpiperidin-4-yloxy)phenyl)-N-(2-(morpholinomethyl)benzyl)-1H-indazole-5-carboxamide] |
